# Measurements from patent publication US20240101576A1, “HETEROCYCLIC INHIBITORS OF EGFR AND/OR HER2, FOR USE IN THE TREATMENT OF CANCER” (Scorpion Therapeutics, Inc., priority 2020, published 2024).
# Columns and labels:
# Assay type in all cases: cell-based
# [1] = target: T1, EGFR exon 20 SVD Ins D770_N771 (Ba/F3 cells) (Homo sapiens, UniProt P00533, INS770SVD); assay: Inhibitor activity on EGFR-dependent cell growth (CellTiter-Glo, 72 h), Ba/F3 EGFR exon 20 SVD Ins; details: read-out: BaF3 SVD IC50
# T1 construct: expressed in transfected cells; host or cells: Ba/F3 (murine pro-B cells), retroviral transduction, puromycin selection, IL3-independent pool
# T1 sequence (P00533 with tags, fused parts or gaps INS770SVD): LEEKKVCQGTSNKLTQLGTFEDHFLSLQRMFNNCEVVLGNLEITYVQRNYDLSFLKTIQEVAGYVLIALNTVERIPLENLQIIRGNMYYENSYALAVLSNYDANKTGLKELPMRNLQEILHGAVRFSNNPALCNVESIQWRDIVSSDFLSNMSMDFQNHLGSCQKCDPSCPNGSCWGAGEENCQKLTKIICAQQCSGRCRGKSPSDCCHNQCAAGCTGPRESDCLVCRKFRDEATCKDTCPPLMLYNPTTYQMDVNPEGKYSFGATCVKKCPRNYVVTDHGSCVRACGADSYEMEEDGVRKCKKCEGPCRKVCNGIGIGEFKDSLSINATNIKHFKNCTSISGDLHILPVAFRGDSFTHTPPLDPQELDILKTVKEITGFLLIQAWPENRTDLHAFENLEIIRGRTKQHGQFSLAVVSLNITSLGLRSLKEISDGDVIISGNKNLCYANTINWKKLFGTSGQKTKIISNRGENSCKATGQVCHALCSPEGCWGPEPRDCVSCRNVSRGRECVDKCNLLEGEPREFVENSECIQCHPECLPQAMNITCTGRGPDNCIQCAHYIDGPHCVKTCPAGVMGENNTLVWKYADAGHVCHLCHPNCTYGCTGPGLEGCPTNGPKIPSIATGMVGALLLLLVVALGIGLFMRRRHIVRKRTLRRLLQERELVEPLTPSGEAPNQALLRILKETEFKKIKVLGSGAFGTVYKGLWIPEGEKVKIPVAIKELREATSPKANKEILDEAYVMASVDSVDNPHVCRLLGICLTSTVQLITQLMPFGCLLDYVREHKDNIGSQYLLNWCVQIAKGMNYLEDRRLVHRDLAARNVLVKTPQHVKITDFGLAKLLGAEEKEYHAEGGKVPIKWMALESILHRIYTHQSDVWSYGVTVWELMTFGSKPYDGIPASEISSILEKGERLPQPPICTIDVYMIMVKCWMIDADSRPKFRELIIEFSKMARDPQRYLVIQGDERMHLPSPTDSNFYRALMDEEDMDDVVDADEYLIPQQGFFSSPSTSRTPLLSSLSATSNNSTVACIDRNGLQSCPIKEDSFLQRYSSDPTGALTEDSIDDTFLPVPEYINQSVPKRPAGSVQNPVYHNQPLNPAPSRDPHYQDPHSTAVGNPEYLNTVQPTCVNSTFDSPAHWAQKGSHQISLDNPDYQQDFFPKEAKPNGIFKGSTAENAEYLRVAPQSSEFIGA
# Outline: (§1)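 IC50s derive from a sigmoidal dose–response fit of CellTiter-Glo signal. The signal was normalised between […]-treated cells and cell-free medium. Ba/F3 mutant-EGFR cells, seeded at 400–800/well depending on the line, had 72 h of exposure to a 10-point, 3-fold compound series.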
# [2] = target: T2, EGFR exon 20 FQEA Ins A763_V764 (Ba/F3 cells) (Homo sapiens, UniProt P00533, INS763FQEA); assay: Inhibitor activity on EGFR-dependent cell growth (CellTiter-Glo, 72 h), Ba/F3 EGFR exon 20 FQEA Ins; details: read-out: BaF3 FQEA IC50
# T2 construct: expressed in transfected cells; host or cells: Ba/F3 (murine pro-B cells), retroviral transduction, puromycin selection, IL3-independent pool
# T2 sequence (P00533 with tags, fused parts or gaps INS763FQEA): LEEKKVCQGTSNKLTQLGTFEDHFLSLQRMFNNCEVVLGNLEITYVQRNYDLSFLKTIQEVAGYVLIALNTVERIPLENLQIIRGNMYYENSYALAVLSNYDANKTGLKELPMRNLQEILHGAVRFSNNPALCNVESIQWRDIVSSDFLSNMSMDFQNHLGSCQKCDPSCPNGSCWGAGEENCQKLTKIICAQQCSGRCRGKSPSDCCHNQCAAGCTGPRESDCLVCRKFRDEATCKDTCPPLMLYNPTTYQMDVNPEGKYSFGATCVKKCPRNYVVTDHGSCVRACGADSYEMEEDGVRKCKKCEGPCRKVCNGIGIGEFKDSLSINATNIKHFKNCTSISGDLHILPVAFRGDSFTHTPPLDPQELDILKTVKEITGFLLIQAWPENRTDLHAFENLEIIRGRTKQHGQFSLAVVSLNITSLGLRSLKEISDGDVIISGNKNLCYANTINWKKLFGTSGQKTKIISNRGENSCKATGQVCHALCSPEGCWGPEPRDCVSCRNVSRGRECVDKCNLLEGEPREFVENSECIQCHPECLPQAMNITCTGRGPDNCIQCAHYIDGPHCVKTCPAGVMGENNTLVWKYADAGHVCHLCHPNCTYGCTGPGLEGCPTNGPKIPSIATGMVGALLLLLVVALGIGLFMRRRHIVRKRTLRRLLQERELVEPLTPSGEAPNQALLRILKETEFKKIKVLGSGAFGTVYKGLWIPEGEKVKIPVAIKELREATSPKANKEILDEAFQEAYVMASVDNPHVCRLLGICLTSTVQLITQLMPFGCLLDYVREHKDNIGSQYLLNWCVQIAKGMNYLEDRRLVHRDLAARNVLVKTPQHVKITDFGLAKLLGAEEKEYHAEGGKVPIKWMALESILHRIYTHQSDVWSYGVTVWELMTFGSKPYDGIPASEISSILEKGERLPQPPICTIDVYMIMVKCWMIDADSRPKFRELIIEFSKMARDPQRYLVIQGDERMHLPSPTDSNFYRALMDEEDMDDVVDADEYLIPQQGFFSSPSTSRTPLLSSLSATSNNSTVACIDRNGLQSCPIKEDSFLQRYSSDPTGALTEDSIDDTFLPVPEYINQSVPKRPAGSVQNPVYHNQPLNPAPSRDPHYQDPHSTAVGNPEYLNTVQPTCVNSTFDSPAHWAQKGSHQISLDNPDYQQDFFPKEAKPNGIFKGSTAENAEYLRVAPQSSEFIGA
# Outline: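 Cell viability was measured by CellTiter-Glo after a three-day treatment. The IL3-free Ba/F3 lines carried L858R, L858R/C797S, exon 19 deletion or FQEA insertion EGFR and were seeded at 400, 600, 800 and 800 cells/well respectively.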
# [3] = target: T3, EGFR exon 20 ASV Ins V769_D770 (Ba/F3 cells) (Homo sapiens, UniProt P00533, INS769ASV); assay: Inhibitor activity on EGFR-dependent cell growth (CellTiter-Glo, 72 h), Ba/F3 EGFR exon 20 ASV Ins; details: read-out: BaF3 ASV IC50
# T3 construct: expressed in transfected cells; host or cells: Ba/F3 (murine pro-B cells), retroviral transduction, puromycin selection, IL3-independent pool
# T3 sequence (P00533 with tags, fused parts or gaps INS769ASV): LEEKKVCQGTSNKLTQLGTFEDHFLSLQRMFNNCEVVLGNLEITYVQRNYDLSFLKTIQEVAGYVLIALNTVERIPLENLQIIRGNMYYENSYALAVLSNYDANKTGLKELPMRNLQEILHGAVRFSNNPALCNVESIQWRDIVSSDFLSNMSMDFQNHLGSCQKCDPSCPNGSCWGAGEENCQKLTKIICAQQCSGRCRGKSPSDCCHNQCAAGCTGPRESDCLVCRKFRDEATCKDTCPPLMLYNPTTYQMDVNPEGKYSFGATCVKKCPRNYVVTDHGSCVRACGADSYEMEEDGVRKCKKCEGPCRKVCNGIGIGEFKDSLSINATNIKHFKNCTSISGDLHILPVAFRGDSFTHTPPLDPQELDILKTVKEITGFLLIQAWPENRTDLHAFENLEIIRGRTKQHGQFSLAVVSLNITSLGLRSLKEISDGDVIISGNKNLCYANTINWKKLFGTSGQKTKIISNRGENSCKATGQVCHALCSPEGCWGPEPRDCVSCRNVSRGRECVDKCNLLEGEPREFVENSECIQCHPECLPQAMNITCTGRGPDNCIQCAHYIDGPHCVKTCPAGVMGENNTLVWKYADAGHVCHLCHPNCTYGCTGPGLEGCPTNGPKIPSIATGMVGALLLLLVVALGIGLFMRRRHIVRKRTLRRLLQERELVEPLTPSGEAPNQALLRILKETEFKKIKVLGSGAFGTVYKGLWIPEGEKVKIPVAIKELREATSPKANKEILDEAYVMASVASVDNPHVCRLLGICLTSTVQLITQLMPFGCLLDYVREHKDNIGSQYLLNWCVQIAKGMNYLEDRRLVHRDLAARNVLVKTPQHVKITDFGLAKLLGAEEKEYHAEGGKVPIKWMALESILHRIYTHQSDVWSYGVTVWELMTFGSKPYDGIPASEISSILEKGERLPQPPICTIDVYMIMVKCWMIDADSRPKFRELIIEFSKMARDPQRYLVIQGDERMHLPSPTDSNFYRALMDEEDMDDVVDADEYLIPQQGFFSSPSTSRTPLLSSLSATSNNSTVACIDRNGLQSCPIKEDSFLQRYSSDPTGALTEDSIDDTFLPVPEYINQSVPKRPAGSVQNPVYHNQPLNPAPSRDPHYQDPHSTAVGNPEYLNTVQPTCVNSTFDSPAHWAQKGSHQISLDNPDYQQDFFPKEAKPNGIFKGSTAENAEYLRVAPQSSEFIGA
# Outline: as §1
# [4] = target: T4, EGFR WT (Ba/F3 cells) (Homo sapiens, UniProt P00533); assay: Inhibitor activity on EGFR-dependent cell growth (CellTiter-Glo, 72 h), Ba/F3 EGFR WT; details: read-out: BaF3 WT IC50
# T4 construct: expressed in transfected cells; host or cells: Ba/F3 (murine pro-B cells), retroviral transduction, puromycin selection, maintained with EGF
# Outline: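 This growth assay used Ba/F3 cells that depend on wild-type EGFR and are kept in EGF without IL3. Compounds were made up as 10 mM DMSO stocks and diluted 3-fold over 10 points. 120 nL went onto 600 cells/well. After 72 hours, 40 μL CellTiter-Glo was added and luminescence read on EnVision after 30 min.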
# [5] = target: T5, EGFR exon 20 NPG Ins D770_N771 (Ba/F3 cells) (Homo sapiens, UniProt P00533, INS770NPG); assay: Inhibitor activity on EGFR-dependent cell growth (CellTiter-Glo, 72 h), Ba/F3 EGFR exon 20 NPG Ins; details: read-out: BaF3 NPG IC50
# T5 construct: expressed in transfected cells; host or cells: Ba/F3 (murine pro-B cells), retroviral transduction, puromycin selection, IL3-independent pool
# T5 sequence (P00533 with tags, fused parts or gaps INS770NPG): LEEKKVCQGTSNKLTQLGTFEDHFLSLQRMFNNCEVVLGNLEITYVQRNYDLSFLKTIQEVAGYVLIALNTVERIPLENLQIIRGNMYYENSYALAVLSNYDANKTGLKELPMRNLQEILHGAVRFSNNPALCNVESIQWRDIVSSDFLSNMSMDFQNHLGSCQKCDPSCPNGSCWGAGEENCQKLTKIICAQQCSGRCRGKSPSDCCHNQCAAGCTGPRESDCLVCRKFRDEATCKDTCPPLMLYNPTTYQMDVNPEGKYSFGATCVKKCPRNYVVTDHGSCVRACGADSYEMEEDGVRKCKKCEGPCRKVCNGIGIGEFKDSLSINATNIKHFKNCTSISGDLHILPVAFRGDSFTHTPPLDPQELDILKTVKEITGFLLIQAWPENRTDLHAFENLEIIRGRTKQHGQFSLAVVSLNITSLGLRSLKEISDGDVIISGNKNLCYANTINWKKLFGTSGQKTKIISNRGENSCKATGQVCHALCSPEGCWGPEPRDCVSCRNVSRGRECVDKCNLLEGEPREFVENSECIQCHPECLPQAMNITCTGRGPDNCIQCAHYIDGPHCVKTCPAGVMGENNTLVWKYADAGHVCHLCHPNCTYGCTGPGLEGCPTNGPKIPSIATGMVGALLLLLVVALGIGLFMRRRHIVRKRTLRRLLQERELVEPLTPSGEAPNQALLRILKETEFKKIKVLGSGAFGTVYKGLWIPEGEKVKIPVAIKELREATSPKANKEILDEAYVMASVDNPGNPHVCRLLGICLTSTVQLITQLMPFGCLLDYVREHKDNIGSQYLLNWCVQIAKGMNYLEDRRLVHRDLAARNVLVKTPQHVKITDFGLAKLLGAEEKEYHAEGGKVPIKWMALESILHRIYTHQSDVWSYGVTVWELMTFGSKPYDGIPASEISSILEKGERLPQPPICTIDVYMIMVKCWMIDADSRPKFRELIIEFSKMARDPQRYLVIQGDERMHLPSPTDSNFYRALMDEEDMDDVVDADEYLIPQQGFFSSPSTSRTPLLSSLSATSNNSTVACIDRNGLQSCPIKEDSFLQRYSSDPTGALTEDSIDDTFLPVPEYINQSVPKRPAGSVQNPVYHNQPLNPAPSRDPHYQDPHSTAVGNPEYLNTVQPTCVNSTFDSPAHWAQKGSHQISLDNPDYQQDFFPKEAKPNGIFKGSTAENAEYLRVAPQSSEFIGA
# Outline: as §1
IC50 [1] [nM],IC50 [2] [nM],IC50 [3] [nM],IC50 [4] [nM],IC50 [5] [nM],Compound
100 to 1000,100 to 1000,100 to 1000,> 1000,< 100,"COc1c(Cl)cc(F)cc1Nc1c(-c2ccnc(N)n2)[nH]c2c1C(=O)NCC2 [Compound 714, 2-(2-aminopyrimidin-4-yl)-3-[(3-chloro-5-fluoro-2-methoxyphenyl)amino]-1H,5H,6H,7H-pyrrolo[3,2-c]pyridin-4-one; trifluoroacetic acid]"
< 100,< 100,< 100,< 100,< 100,"COc1c(Cl)cccc1Nc1c(-c2ccnc(Nc3ccn(C)n3)n2)[nH]c2c1C(=O)NCC2 [compound 509, 3-[(3-chloro-2-methoxyphenyl)amino]-2-{2-[(1-methylpyrazol-3-yl)amino]pyrimidin-4-yl}-1H,5H,6H,7H-pyrrolo[3,2-c]pyridin-4-one]"
< 100,< 100,< 100,100 to 1000,< 100,"COc1c(Cl)cccc1Nc1c(-c2ccnc3ccc(O[C@@H]4CCOC4)nc23)[nH]c2c1C(=O)NCC2 [compound 743, 3-[(3-chloro-2-methoxyphenyl)amino]-2-[6-[(3R)-oxolan-3-yloxy]-1,5-naphthyridin-4-yl]-1H,5H,6H,7H-pyrrolo[3,2-c]pyridin-4-one]"
< 100,100 to 1000,< 100,100 to 1000,< 100,"COc1c(Cl)cccc1Nc1c(-c2ccnc3ccc(OCC4CN(C)C4)nc23)[nH]c2c1C(=O)NCC2 [compound 738, 3-[(3-chloro-2-methoxyphenyl)amino]-2-[6-[(1-methylazetidin-3-yl)methoxy]-1,5-naphthyridin-4-yl]-1H,5H,6H,7H-pyrrolo[3,2-c]pyridin-4-one]"
> 1000,> 1000,> 1000,> 1000,> 1000,COc1c(F)cccc1Nc1c(-c2ccncc2F)[nH]c2c1C(=O)NC[C@@H]2CC1COC1 [469b]
100 to 1000,100 to 1000,100 to 1000,> 1000,100 to 1000,"COc1c(F)cccc1Nc1c(-c2ccncc2F)[nH]c2c1C(=O)NC[C@@H]2C[C@H]1CCO1 [Compound 422c, (7S)-3-[(3-fluoro-2-methoxyphenyl)amino]-2-(3-fluoropyridin-4-yl)-7-[(2S)-oxetan-2-ylmethyl]-1H,5H,6H,7H-pyrrolo[3,2-c]pyridin-4-one]"
< 100,< 100,< 100,100 to 1000,< 100,"COc1c(Cl)cccc1Nc1c(-c2ccnc3ccc(OC[C@@H]4CCO4)nc23)[nH]c2c1C(=O)NCC2 [compound 735, 3-[(3-chloro-2-methoxyphenyl)amino]-2-[6-[(2S)-oxetan-2-ylmethoxy]-1,5-naphthyridin-4-yl]-1H,5H,6H, 7H-pyrrolo[3,2-c]pyridin-4-one]"
< 100,< 100,< 100,100 to 1000,< 100,"COc1c(Cl)cccc1Nc1c(-c2ccnc3ccc(O[C@@H]4CCCOC4)nc23)[nH]c2c1C(=O)NCC2 [compound 742, 3-[(3-chloro-2-methoxyphenyl)amino]-2-[6-[(3R)-oxan-3-yloxy]-1,5-naphthyridin-4-yl]-1H,5H,6H,7H-pyrrolo[3,2-c]pyridin-4-one; formic acid]"
< 100,< 100,< 100,100 to 1000,< 100,"COc1c(Cl)cccc1Nc1c(-c2ccnc3ccc(OCC4COC4)nc23)[nH]c2c1C(=O)NCC2 [compound 737, 3-[(3-chloro-2-methoxyphenyl)amino]-2-[6-(oxetan-3-ylmethoxy)-1,5-naphthyridin-4-yl]-1H,5H,6H,7H-pyrrolo[3,2-c] pyridin-4-one]"
< 100,< 100,< 100,100 to 1000,< 100,"COc1c(Cl)cccc1Nc1c(-c2ccnc3ccc(OC[C@H]4CCO4)nc23)[nH]c2c1C(=O)NCC2 [compound 734, 3-[(3-chloro-2-methoxyphenyl)amino]-2-[6-[(2R)-oxetan-2-ylmethoxy]-1,5-naphthyridin-4-yl]-1H,5H,6H,7H-pyrrolo[3,2-c]pyridin-4-one]"
< 100,< 100,< 100,< 100,< 100,"CCO[C@H](C)c1ccc2nccc(-c3[nH]c4c(c3Nc3cccc(Cl)c3OC)C(=O)NCC4)c2n1 [compound 753, 3-[(3-chloro-2-methoxyphenyl)amino]-2-[6-[(1R)-1-ethoxyethyl]-1,5-naphthyridin-4-yl]-1H,5H,6H,7H-pyrrolo[3,2-c]pyridin-4-one; trifluoroacetic acid]"
< 100,< 100,< 100,< 100,< 100,"COc1c(Cl)cccc1Nc1c(-c2ccnc3ccc(OC4COC4)nc23)[nH]c2c1C(=O)NCC2 [compound 732, 3-[(3-chloro-2-methoxyphenyl)amino]-2-[6-(oxetan-3-yloxy)-1,5-naphthyridin-4-yl]-1H,5H,6H,7H-pyrrolo[3,2-c]pyridin-4-one]"
100 to 1000,100 to 1000,100 to 1000,100 to 1000,100 to 1000,"COc1c(Cl)cccc1Nc1c(-c2ccnc3ccc(OCC4(C(F)(F)F)CC4)nc23)[nH]c2c1C(=O)NCC2 [compound 758, 3-[(3-chloro-2-methoxyphenyl)amino]-2-(6-[[1-(trifluoromethyl)cyclopropyl]methoxy]-1,5-naphthyridin-4-yl)-1H,5H,6H,7H-pyrrolo[3,2-c]pyridin-4-one]"
< 100,< 100,< 100,100 to 1000,< 100,"COCC[C@H]1CNC(=O)c2c1[nH]c(-c1ccnc(N)n1)c2Nc1cccc(Cl)c1OC [Compound 727, (7S)-2-(2-aminopyrimidin-4-yl)-3-[(3-chloro-2-methoxyphenyl)amino]-7-(2-methoxyethyl)-1H,5H,6H,7H-pyrrolo[3,2-c]pyridin-4-one]"
< 100,< 100,< 100,< 100,< 100,"COc1c(Cl)cccc1Nc1c(-c2ccnc3ccc(O[C@H]4CCCOC4)nc23)[nH]c2c1C(=O)NCC2 [compound 741, 3-[(3-chloro-2-methoxyphenyl)amino]-2-[6-[(3S)-oxan-3-yloxy]-1,5-naphthyridin-4-yl]-1H,5H,6H,7H-pyrrolo[3,2-c]pyridin-4-one; formic acid]"
< 100,< 100,< 100,< 100,< 100,"COc1c(Cl)cccc1Nc1c(-c2ccnc3ccc(OC4(C)CC4)nc23)[nH]c2c1C(=O)NCC2 [Compound 767, 3-[(3-chloro-2-methoxyphenyl)amino]-2-[6-(1-methylcyclopropoxy)-1,5-naphthyridin-4-yl]-1H,5H,6H,7H-pyrrolo[3,2-c]pyridin-4-one]"
< 100,< 100,< 100,< 100,< 100,"CCOc1ccc2nccc(-c3[nH]c4c(c3Nc3cccc(Cl)c3OC)C(=O)NCC4)c2n1 [compound 761, 3-[(3-chloro-2-methoxyphenyl)amino]-2-(6-ethoxy-1,5-naphthyridin-4-yl)-1H,5H,6H,7H-pyrrolo[3,2-c]pyridin-4-one]"
> 1000,> 1000,100 to 1000,> 1000,100 to 1000,COc1c(Cl)cccc1Nc1c(-c2ccnc(NC[C@@H]3CCO3)n2)[nH]c2c1C(=O)NCC2 [compound 719]
–,< 100,–,100 to 1000,< 100,COCC[C@@H]1CNC(=O)c2c1[nH]c(-c1ccncc1F)c2Nc1cccc(Cl)c1OC [Compound 746]
< 100,–,< 100,100 to 1000,< 100,"CCn1cc(Nc2nccc(-c3[nH]c4c(c3Nc3cccc(Cl)c3OC)C(=O)NCC4)n2)nn1 [Compound 594, 3-[(3-chloro-2-methoxyphenyl)amino]-2-{2-[(1-ethyl-1,2,3-triazol-4-yl)amino]pyrimidin-4-yl}-1H,5H,6H,7H-pyrrolo[3,2-c]pyridin-4-one]"
< 100,–,< 100,100 to 1000,< 100,C=CC(=O)N1CCC2(CC1)CNC(=O)c1c2[nH]c(-c2ccnc(C)n2)c1Nc1cc(F)cc(Cl)c1OC [compound 642]
